Assay results reported in ChEMBL document CHEMBL1201862, “PubChem BioAssay data set” (2004).
Counter-ions that a name gives are not always drawn.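 Each compound was tested at five concentrations against cells in 96-well plates for 48 hours. GI50: concentration for 50% inhibition of growth.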 Active and inactive are the calls of the source. Cut-off read from the data, not from the text of the source: active = GI50 up to about 1.1 µM and inactive = higher.

Tests used:
Experiment in all cases: NCI-60 cell line screen, 48 h
[1] = tested on: 786-0
[2] = tested on: OVCAR-3
[3] = tested on: SK-OV-3
[4] = tested on: SF-295
[5] = tested on: HOP-92
[6] = tested on: KM-20L2
[7] = tested on: RPMI-8226
[8] = tested on: CAKI-1
[9] = tested on: SN12C
[10] = tested on: COLO 205
[11] = tested on: Malme-3M
[12] = tested on: NCI-H460
[13] = tested on: HT-29
[14] = tested on: U-251
[15] = tested on: SK-MEL-2
[16] = tested on: UACC-62
[17] = tested on: SK-MEL-5
[18] = tested on: SK-MEL-28
[19] = tested on: SF-268
[20] = tested on: IGROV-1
[21] = tested on: SF-539
[22] = tested on: UACC-257
[23] = tested on: ACHN
[24] = tested on: A549
[25] = tested on: M14
[26] = tested on: SW-620
[27] = tested on: EKVX
[28] = tested on: DLD-1
[29] = tested on: HL-60
[30] = tested on: CCRF-CEM
[31] = tested on: M19-MEL
[32] = tested on: LXFL 529
[33] = tested on: MOLT-4
[34] = tested on: OVCAR-8
[35] = tested on: SNB-75
[36] = tested on: KM12
[37] = tested on: DMS-114
[38] = tested on: TK-10
[39] = tested on: DMS-273
[40] = tested on: OVCAR-5
[41] = tested on: NCI-H23
[42] = tested on: NCI-H522
[43] = tested on: UO-31
[44] = tested on: HCT-15
[45] = tested on: K562
[46] = tested on: LOX IMVI
[47] = tested on: RXF 393
[48] = tested on: HOP-18
[49] = tested on: SNB-19
[50] = tested on: HCC 2998
[51] = tested on: OVCAR-4
[52] = tested on: SR
[53] = tested on: NCI-H226
[54] = tested on: SNB-78
[55] = tested on: A498
[56] = tested on: HOP-62
[57] = tested on: HCT-116
[58] = tested on: T47D
[59] = tested on: MDA-N
[60] = tested on: DU-145
[61] = tested on: BT-549
[62] = tested on: PC-3
[63] = tested on: MDA-MB-435
[64] = tested on: XF498

Compound: N/N=C1\c2ccccc2C2/C(=N\N)c3ccccc3C12 (stereo not given)
- GI50 [1]: > 100 µM (inactive)
- GI50 [2]: > 100 µM (inactive)
- GI50 [3]: > 100 µM (inactive)
- GI50 [4]: > 100 µM (inactive)
- GI50 [5]: > 100 µM (inactive)
- GI50 [6]: > 100 µM (inactive)
- GI50 [7]: > 100 µM (inactive)
- GI50 [8]: > 100 µM (inactive)
- GI50 [9]: > 100 µM (inactive)
- GI50 [10]: > 100 µM (inactive)
- GI50 [11]: > 100 µM (inactive)
- GI50 [12]: > 100 µM (inactive)
- GI50 [13]: > 100 µM (inactive)
- GI50 [14]: > 100 µM (inactive)
- GI50 [15]: > 100 µM (inactive)
- GI50 [16]: > 100 µM (inactive)
- GI50 [17]: > 100 µM (inactive)
- GI50 [18]: > 100 µM (inactive)
- GI50 [19]: > 100 µM (inactive)
- GI50 [20]: > 100 µM (inactive)
- GI50 [21]: > 100 µM (inactive)
- GI50 [22]: > 100 µM (inactive)
- GI50 [23]: > 100 µM (inactive)
- GI50 [24]: > 100 µM (inactive)
- GI50 [25]: > 100 µM (inactive)
- GI50 [26]: > 100 µM (inactive)
- GI50 [27]: > 100 µM (inactive)
- GI50 [28]: > 100 µM (inactive)
- GI50 [29]: > 100 µM (inactive)
- GI50 [30]: > 100 µM (inactive)
- GI50 [31]: > 100 µM (inactive)
- GI50 [32]: > 100 µM (inactive)
- GI50 [33]: > 100 µM (inactive)
- GI50 [34]: > 100 µM (inactive)
- GI50 [35]: 56.1 µM (inactive)
- GI50 [36]: > 100 µM (inactive)
- GI50 [37]: > 100 µM (inactive)
- GI50 [38]: > 100 µM (inactive)
- GI50 [39]: > 100 µM (inactive)
- GI50 [40]: > 100 µM (inactive)
- GI50 [41]: > 100 µM (inactive)
- GI50 [42]: > 100 µM (inactive)
- GI50 [43]: > 10 µM (inactive)
- GI50 [44]: > 100 µM
- GI50 [45]: > 100 µM (inactive)
- GI50 [46]: > 100 µM (inactive)
- GI50 [47]: > 100 µM (inactive)
- GI50 [48]: 57.4 µM (inactive)
- GI50 [49]: > 100 µM (inactive)
- GI50 [50]: > 100 µM (inactive)
- GI50 [51]: > 100 µM (inactive)

Compound: Cc1cccc(NC(=O)CC2C(=O)Nc3ccccc3S2(=O)=O)c1C (stereo not given)
- GI50 [1]: 29 µM (inactive)
- GI50 [2]: 21.7 µM (inactive)
- GI50 [3]: 21.9 µM (inactive)
- GI50 [4]: 58.1 µM (inactive)
- GI50 [5]: 19.1 µM (inactive)
- GI50 [52]: 11.1 µM (inactive)
- GI50 [6]: 39.4 µM (inactive)
- GI50 [8]: 66.8 µM (inactive)
- GI50 [9]: 97.5 µM (inactive)
- GI50 [10]: > 100 µM (inactive)
- GI50 [11]: 22.9 µM (inactive)
- GI50 [12]: 22.6 µM (inactive)
- GI50 [13]: 33.2 µM (inactive)
- GI50 [14]: 27 µM (inactive)
- GI50 [15]: 23.4 µM (inactive)
- GI50 [16]: 18.6 µM (inactive)
- GI50 [17]: 28.6 µM (inactive)
- GI50 [18]: 77.6 µM (inactive)
- GI50 [19]: 33.2 µM (inactive)
- GI50 [20]: 26.1 µM (inactive)
- GI50 [21]: 19.8 µM (inactive)
- GI50 [22]: 26.9 µM (inactive)
- GI50 [23]: 23.2 µM (inactive)
- GI50 [53]: 25 µM (inactive)
- GI50 [24]: 31.2 µM (inactive)
- GI50 [25]: 25.4 µM (inactive)
- GI50 [54]: 26.1 µM (inactive)
- GI50 [26]: 28.2 µM (inactive)
- GI50 [27]: > 100 µM (inactive)
- GI50 [28]: 49.7 µM (inactive)
- GI50 [55]: 30.3 µM (inactive)
- GI50 [56]: 22.6 µM (inactive)
- GI50 [29]: 23.3 µM (inactive)
- GI50 [31]: 32.5 µM (inactive)
- GI50 [32]: 36.9 µM (inactive)
- GI50 [33]: 47.9 µM (inactive)
- GI50 [57]: 17.2 µM (inactive)
- GI50 [34]: 20.2 µM (inactive)
- GI50 [35]: 16.9 µM (inactive)
- GI50 [36]: 30.8 µM (inactive)
- GI50 [37]: 20.3 µM (inactive)
- GI50 [38]: 28.9 µM (inactive)
- GI50 [39]: 25.8 µM (inactive)
- GI50 [40]: > 100 µM (inactive)
- GI50 [41]: 16.7 µM (inactive)
- GI50 [42]: 16.6 µM (inactive)
- GI50 [43]: 20.9 µM (inactive)
- GI50 [44]: 40.6 µM
- GI50 [45]: 9.18 µM (inactive)
- GI50 [47]: 17.9 µM (inactive)
- GI50 [48]: 22.1 µM (inactive)
- GI50 [49]: 32.1 µM (inactive)
- GI50 [50]: 28.1 µM (inactive)
- GI50 [51]: 16.5 µM (inactive)

Compound: CCN(CC)CCNc1ccc(CO)c2sc3ccccc3c(=O)c12 [HYCANTHONE MESYLATE]
- GI50 [4]: 8.26 µM (inactive)
- GI50 [5]: 2.75 µM (inactive)
- GI50 [52]: 2.83 µM (inactive)
- GI50 [58]: 11.5 µM (inactive)
- GI50 [6]: 8.2 µM (inactive)
- GI50 [7]: 12.9 µM (inactive)
- GI50 [8]: 9.02 µM (inactive)
- GI50 [59]: 5.12 µM (inactive)
- GI50 [12]: 3.05 µM (inactive)
- GI50 [14]: 8.89 µM (inactive)
- GI50 [16]: 14.7 µM (inactive)
- GI50 [18]: 9.68 µM (inactive)
- GI50 [19]: 6.7 µM (inactive)
- GI50 [21]: 11 µM (inactive)
- GI50 [22]: 11.6 µM (inactive)
- GI50 [53]: 8.91 µM (inactive)
- GI50 [24]: 5.08 µM (inactive)
- GI50 [54]: 13.4 µM (inactive)
- GI50 [60]: 9.57 µM (inactive)
- GI50 [61]: 13.5 µM (inactive)
- GI50 [26]: 2.75 µM (inactive)
- GI50 [27]: 10.5 µM (inactive)
- GI50 [55]: 6.1 µM (inactive)
- GI50 [31]: 13.3 µM (inactive)
- GI50 [33]: 1.63 µM (inactive)
- GI50 [57]: 3.34 µM (inactive)
- GI50 [62]: 5.81 µM (inactive)
- GI50 [34]: 5.15 µM (inactive)
- GI50 [37]: 8.71 µM (inactive)
- GI50 [38]: 12.1 µM (inactive)
- GI50 [39]: 5.57 µM (inactive)
- GI50 [40]: 6.95 µM (inactive)
- GI50 [41]: 9.48 µM (inactive)
- GI50 [42]: 3.78 µM (inactive)
- GI50 [43]: 4.1 µM (inactive)
- GI50 [63]: 3.27 µM (inactive)
- GI50 [47]: 5.19 µM (inactive)
- GI50 [49]: 11.4 µM (inactive)
- GI50 [64]: 11.6 µM (inactive)
- GI50 [51]: 4.45 µM (inactive)
